Numbers after ± are expanded uncertainties.
How the values were obtained:
[1] = molar heat capacity at constant pressure; xn = mol fraction of the nth substance listed; conditions: Flow calorimetry
[2] = molar heat capacity at constant pressure; conditions: 3000 kPa, Flow calorimetry

CCCCC [pentane] + CC(C)=O
[1]
Conditions	molar heat capacity at constant pressure [J/K/mol]
423.14 K, 3900 kPa, Liquid, x1 = 0.25	170.75 ± 3.9
423.14 K, 7920 kPa, Liquid, x1 = 0.5	179.32 ± 4.2
423.15 K, 2000 kPa, Liquid, x1 = 0.25	174.5 ± 4.1
423.15 K, 2900 kPa, Liquid, x1 = 0.5	194.43 ± 4.6
423.15 K, 4000 kPa, Liquid, x1 = 0.5	190.78 ± 4.4
423.15 K, 6000 kPa, Liquid, x1 = 0.25	171.36 ± 4
423.15 K, 6050 kPa, Liquid, x1 = 0.5	184.14 ± 4.3
423.15 K, 7960 kPa, Liquid, x1 = 0.25	163.97 ± 3.8
423.16 K, 1080 kPa, Gas, x1 = 0.5	145.86 ± 3.4
423.16 K, 2300 kPa, Liquid, x1 = 0.25	175.12 ± 4.1
423.17 K, 1080 kPa, Gas, x1 = 0.25	135.14 ± 3.1
483.14 K, 2960 kPa, Gas, x1 = 0.5	180.5 ± 5
483.14 K, 4000 kPa, Gas, x1 = 0.5	283.18 ± 6.9
483.15 K, 4480 kPa, Fluid (supercritical or subcritical phases), x1 = 0.5	750.83 ± 54
483.15 K, 7050 kPa, Fluid (supercritical or subcritical phases), x1 = 0.5	233.69 ± 8.7
483.15 K, 8160 kPa, Fluid (supercritical or subcritical phases), x1 = 0.5	218.13 ± 9
483.16 K, 5000 kPa, Fluid (supercritical or subcritical phases), x1 = 0.5	446.03 ± 32
483.16 K, 6100 kPa, Fluid (supercritical or subcritical phases), x1 = 0.5	260.13 ± 6.9
493.15 K, 3860 kPa, Gas, x1 = 0.25	221.56 ± 5.2
493.15 K, 4530 kPa, Fluid (supercritical or subcritical phases), x1 = 0.25	611.96 ± 120
493.15 K, 4742 kPa, Fluid (supercritical or subcritical phases), x1 = 0.25	1236.9 ± 140
493.15 K, 7920 kPa, Fluid (supercritical or subcritical phases), x1 = 0.25	214.05 ± 5.6
493.16 K, 3140 kPa, Gas, x1 = 0.25	173.64 ± 4.1
493.16 K, 6000 kPa, Fluid (supercritical or subcritical phases), x1 = 0.25	263.45 ± 9.7
503.14 K, 3200 kPa, Gas, x1 = 0.25	167.97 ± 3.9
503.14 K, 4120 kPa, Gas, x1 = 0.25	214.42 ± 5.1
503.15 K, 6180 kPa, Fluid (supercritical or subcritical phases), x1 = 0.25	330.59 ± 10
503.15 K, 7820 kPa, Fluid (supercritical or subcritical phases), x1 = 0.25	229.45 ± 5.9
503.16 K, 5400 kPa, Fluid (supercritical or subcritical phases), x1 = 0.25	600.07 ± 43
508.15 K, 2980 kPa, Gas, x1 = 0.5	175.81 ± 4.1
508.15 K, 4060 kPa, Gas, x1 = 0.5	200.68 ± 7.4
508.15 K, 6050 kPa, Fluid (supercritical or subcritical phases), x1 = 0.5	360.73 ± 12
508.15 K, 6930 kPa, Fluid (supercritical or subcritical phases), x1 = 0.5	310.98 ± 9.1
508.15 K, 8010 kPa, Fluid (supercritical or subcritical phases), x1 = 0.5	261.37 ± 7.9
508.16 K, 5030 kPa, Fluid (supercritical or subcritical phases), x1 = 0.5	258.63 ± 9.6

O [water]
[2]
Conditions	molar heat capacity at constant pressure [J/K/mol]
330.2 K, Liquid	75.29 ± 1.7
340.1 K, Liquid	75.41 ± 1.7
358.4 K, Liquid	75.61 ± 1.8
368.2 K, Liquid	75.61 ± 1.8
378.6 K, Liquid	75.99 ± 1.8
388.4 K, Liquid	76.49 ± 1.8
398.5 K, Liquid	76.51 ± 1.8
408.6 K, Liquid	77.48 ± 1.8
418.8 K, Liquid	76.93 ± 1.8
428.6 K, Liquid	77.72 ± 1.8
438.5 K, Liquid	78.11 ± 1.8
448.2 K, Liquid	78.91 ± 1.8
458.5 K, Liquid	79.41 ± 1.9
468.2 K, Liquid	80.92 ± 1.9
478.2 K, Liquid	81.81 ± 1.9
488.7 K, Liquid	83.32 ± 1.9
498.1 K, Liquid	83.92 ± 1.9
508.4 K, Gas	63.31 ± 1.5

Reference: the NIST ThermoML archive (doi:10.1016/j.tca.2018.04.018)
